# In US20260042764A1, “COMPOSITIONS AND METHODS FOR INHIBITION OF KRAS” (TheRas, Inc., priority 2022, published 2026):
# Tests used:
# [1] = target: T1, Avi-KRAS G12D (1-169) GppNHp/RAF1 RBD-3xFLAG (52-151) (Homo sapiens, UniProt P01116, G12D); assay: Raf1-KRAS G12D-GppNHP disruption HTRF assay (Biological Example 1); assay type: binding
# T1 construct: Avi-KRAS G12D (1-169)
# How it was run: (§1)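 Measured with a KRAS/RAF1 HTRF assay at pH 7.5 in 10% DMSO, with two 1 h room-temperature incubations with shaking.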
# [2] = target: T2, Avi-KRAS G12R (1-169) GppNHp/RAF1 RBD-3xFLAG (52-151) (Homo sapiens, UniProt P01116, G12R); assay: Raf1-KRAS G12R-GppNHP disruption HTRF assay (Biological Example 1); assay type: binding
# T2 construct: Avi-KRAS G12R (1-169)
# T2 sequence (P01116 1-169 isoform P01116-2 G12R): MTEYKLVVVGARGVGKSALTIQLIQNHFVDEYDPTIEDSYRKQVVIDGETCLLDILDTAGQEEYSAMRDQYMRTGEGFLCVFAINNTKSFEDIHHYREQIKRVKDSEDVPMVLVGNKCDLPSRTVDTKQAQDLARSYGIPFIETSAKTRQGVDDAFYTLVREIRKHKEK
# How it was run: as §1
# [3] = target: T3, Avi-KRAS G12V (1-169) GppNHp/RAF1 RBD-3xFLAG (52-151) (Homo sapiens, UniProt P01116, G12V); assay: Raf1-KRAS G12V-GppNHP disruption HTRF assay (Biological Example 1); assay type: binding
# T3 construct: Avi-KRAS G12V (1-169)
# T3 sequence (P01116 1-169 isoform P01116-2 G12V): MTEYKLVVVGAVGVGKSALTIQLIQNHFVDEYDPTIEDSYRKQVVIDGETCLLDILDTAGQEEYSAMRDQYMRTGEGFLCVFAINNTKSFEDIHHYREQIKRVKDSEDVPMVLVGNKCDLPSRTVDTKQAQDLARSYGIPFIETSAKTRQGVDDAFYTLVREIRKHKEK
# How it was run: as §1
# [4] = target: T4, Avi-KRAS WT (1-169) GppNHp/RAF1 RBD-3xFLAG (52-151) (Homo sapiens, UniProt P01116); assay: Raf1-KRAS WT-GppNHP disruption HTRF assay (Biological Example 1); assay type: binding
# T4 construct: Avi-KRAS WT (1-169)
# T4 sequence (P01116 1-169 isoform P01116-2): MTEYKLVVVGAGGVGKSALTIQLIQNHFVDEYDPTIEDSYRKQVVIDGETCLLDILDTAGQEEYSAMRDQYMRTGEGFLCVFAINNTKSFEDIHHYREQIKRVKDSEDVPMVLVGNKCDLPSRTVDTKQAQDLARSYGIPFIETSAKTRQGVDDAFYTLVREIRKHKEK
# How it was run: as §1
# GP2d cells (KRAS G12D) = assay: Cell-based pERK HTRF assay in GP2d cell (Biological Example 2); conditions: GP2d (KRAS G12D) cells, pERK HTRF
# How it was run: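 HTRF read-out of pERK (excitation 320 nm, emission 615 nm) after lysates sat 4–24 h at room temperature with Eu cryptate and d2 antibodies.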
# SW620 cells (KRAS G12V) = assay: Cell-based pERK HTRF assay in SW620 cell (Biological Example 4); conditions: pERK HTRF
# Protocol: A pERK assay (Perkin Elmer) was used to determine the effectiveness of compounds in disrupting KRAS G12V protein/effector signaling in cells.
# On Day 1, cells (SW620) were seeded into 96-well plates at 3×10^4 cells/well in 80 μL complete growth media (RPMI, 10% FBS).
# On Day 2, cells were treated with compounds at 0.25% DMSO. The source plate was created with compounds diluted in media at 5-fold the final assay concentration. The compounds were run in a 9-point concentration curve starting at 1 μM, with a half-log dilution between concentrations. Twenty μL was transferred onto the cell plates (final volume in wells was 100 μL). Plates were harvested after 4 h incubation by aspirating media and adding kit-supplied 1x supplemented lysis buffer to all wells (50 μL per well). Plates were then placed on a plate shaker and incubated at 850 rpm for an additional 30 min.
# Antibody mixture solution was prepared by diluting aliquoted d2 and Eu Cryptate antibodies 1:20 in kit supplied detection buffer and mixing the diluted antibodies solutions (1:1 v:v).
# Samples were homogenized by pipetting up and down and then transferred (16 μL of cell lysates) from the 96-well cell culture plate to two wells of the HTRF 384-well detection plate containing the antibody solution. Plates were centrifuged (524 g for Imin) and allowed to incubate between 4 and 24 h at room temperature. […] Plates were centrifuged again (524 g for 1 min), then analyzed on the En Vision plate reader using the following settings: Excitation 320 nm, Bandwidth 75 nm; Emission 615 nm, Bandwidth 85 nm; Gain 100%; Flashes 100; Lag 60 μs.
# [5] = KRAS G12D, GppNHp-loaded, Table 11
# [6] = KRAS G12R, GppNHp-loaded, Table 11
# [7] = KRAS G12V, GppNHp-loaded, Table 11
# [8] = KRAS WT, GppNHp-loaded, Table 11
# [9] = Homo sapiens, SW-620, SW620 (KRAS G12V) cells
# [10] = KRAS G12D, GppNHp-loaded, class symbols
# [11] = KRAS G12R, GppNHp-loaded, class symbols
# [12] = KRAS G12V, GppNHp-loaded, class symbols
# [13] = KRAS WT, GppNHp-loaded, class symbols
# [14] = Homo sapiens, SW-620, SW620 (KRAS G12V) cells, class symbols
# T1 sequence (P01116 1-169 isoform P01116-2 G12D): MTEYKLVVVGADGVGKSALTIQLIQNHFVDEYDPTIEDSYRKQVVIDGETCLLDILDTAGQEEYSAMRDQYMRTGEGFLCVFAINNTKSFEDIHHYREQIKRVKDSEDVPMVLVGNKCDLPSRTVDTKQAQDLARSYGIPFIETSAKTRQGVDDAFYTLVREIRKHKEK
SMILES,"IC50 [1, 5] [µM]","IC50 [2, 6] [µM]","IC50 [3, 7] [µM]","IC50 [4, 8] [µM]",IC50 (GP2d cells (KRAS G12D); GP2d) [µM],IC50 (SW620 cells (KRAS G12V); [9]) [µM],IC50 ([1]; KRAS G12D-GppNHp/RAF1 RBD HTRF) [µM],IC50 ([2]; KRAS G12R-GppNHp/RAF1 RBD HTRF) [µM],IC50 ([3]; KRAS G12V-GppNHp/RAF1 RBD HTRF) [µM],IC50 ([4]; KRAS WT-GppNHp/RAF1 RBD HTRF) [µM],also measured
CC(=O)N1CC[C@H](N(C)c2nc(OC[C@@H]3CC4(CC4)CN3C)nc3c(F)c(-c4ccc(F)c5sc(N)c(C#N)c45)c(C(F)(F)F)cc23)[C@@H]1C [Compound 227],1 to 10,> 10,> 10,> 10,0.1 to 1,0.1 to 1,–,–,–,–,–
CC1(O)COCCN(c2nc(OC[C@@]34CCCN3C[C@H](F)C4)nc3c(F)c(-c4ccc(F)c5sc(N)c(C#N)c45)c(C(F)(F)F)cc23)C1 (stereo partly shown) [Compound 244],0.1 to 1,0.1 to 1,0.1 to 1,0.1 to 1,< 0.1,< 0.1,–,–,–,–,–
"N#Cc1c(N)sc2c(F)ccc(-c3c(C(F)(F)F)cc4c(N(Cc5cccnc5N)C5CC5)nc(OC[C@@]56CCCN5C[C@H](F)C6)nc4c3F)c12 (atropisomer, axis not shown) [Compound 602]",–,–,–,–,–,–,–,–,–,–,"IC50 [1, 10]: 1 to 10 µM; IC50 [2, 11]: 1 to 10 µM; IC50 [3, 12]: 1 to 10 µM; IC50 [4, 13]: 1 to 10 µM; IC50 (GP2d cells (KRAS G12D); GP2d, class symbols): < 0.1 µM; IC50 (SW620 cells (KRAS G12V); [14]): < 0.1 µM"
CC1(O)CCN(c2nc(OC[C@@]34CCCN3C[C@H](F)C4)nc3c(F)c(-c4ccc(F)c5sc(N)c(C#N)c45)c(C(F)(F)F)cc23)CC1 [Compound 228],0.1 to 1,1 to 10,1 to 10,0.1 to 1,0.1 to 1,0.1 to 1,–,–,–,–,–
CN1C[C@H](N(C)c2nc(OC[C@@]34CCCN3C[C@H](F)C4)nc3c(F)c(-c4ccc(F)c5sc(N)c(C#N)c45)c(C(F)(F)F)cc23)CC1=O [Compound 285],–,–,–,–,< 0.1,< 0.1,0.1 to 1,0.1 to 1,0.1 to 1,0.1 to 1,–
N#Cc1c(N)sc2c(F)ccc(-c3c(C(F)(F)F)cc4c(N5CC6CCC(C5)N6C(=O)C5CC5)nc(OC[C@@]56CCCN5C[C@H](F)C6)nc4c3F)c12 [Compound 439],–,–,–,–,< 0.1,< 0.1,0.1 to 1,1 to 10,1 to 10,1 to 10,–
N#Cc1c(N)sc2c(F)ccc(-c3c(C(F)(F)F)cc4c(N5CCC[C@H](CO)C5)nc(OC[C@@]56CCCN5C[C@H](F)C6)nc4c3F)c12 [Compound 310],–,–,–,–,< 0.1,0.1 to 1,0.1 to 1,0.1 to 1,1 to 10,0.1 to 1,–
"N#Cc1c(N)sc2c(F)ccc(-c3c(C(F)(F)F)cc4c(N5C[C@H]6C[C@@H]5CO6)nc(OC[C@@]56CCCN5C[C@H](F)C6)nc4c3F)c12 (single isomer, unassigned) [Compound 288]",–,–,–,–,–,–,> 10,> 10,> 10,> 10,IC50 (GP2d cells (KRAS G12D)): 0.1 to 1 µM; IC50 (SW620 cells (KRAS G12V); SW620 (KRAS G12V) cells): 0.1 to 1 µM
"CCN(c1nc(OC[C@@]23CCCN2C[C@H](F)C3)nc2c(F)c(-c3ccc(F)c4sc(N)c(C#N)c34)c(C(F)(F)F)cc12)[C@H]1CCN(C(=O)N2C[C@@H](F)[C@@H](F)C2)C1 (atropisomer, axis not shown) [Compound 609]",–,–,–,–,–,–,–,–,–,–,"IC50 [1, 10]: < 0.1 µM; IC50 [2, 11]: < 0.1 µM; IC50 [3, 12]: < 0.1 µM; IC50 [4, 13]: < 0.1 µM; IC50 (GP2d cells (KRAS G12D); GP2d, class symbols): < 0.1 µM; IC50 (SW620 cells (KRAS G12V); [14]): < 0.1 µM"
"CCN(c1nc(OC[C@@]23CCCN2C[C@H](F)C3)nc2c(F)c(-c3ccc(F)c4sc(N)c(C#N)c34)c(C(F)(F)F)cc12)[C@H]1CCN(C(=O)N2CC3(COC3)C2)C1 (atropisomer, axis not shown) [Compound 637]",–,–,–,–,–,–,–,–,–,–,"IC50 [1, 10]: < 0.1 µM; IC50 [2, 11]: < 0.1 µM; IC50 [3, 12]: < 0.1 µM; IC50 [4, 13]: < 0.1 µM; IC50 (GP2d cells (KRAS G12D); GP2d, class symbols): < 0.1 µM; IC50 (SW620 cells (KRAS G12V); [14]): < 0.1 µM"
CCN(CCO)c1nc(OC[C@@H]2C[C@@H](F)CN2C)nc2c(F)c(-c3ccc(F)c4sc(N)c(C#N)c34)c(C(F)(F)F)cc12 [Compound 177],0.1 to 1,0.1 to 1,0.1 to 1,0.1 to 1,< 0.1,–,–,–,–,–,–
C[C@@H]1COCCN1c1nc(OC[C@@]23CCCN2C[C@H](F)C3)nc2c(F)c(-c3ccc(F)c4sc(N)c(C#N)c34)c(C(F)(F)F)cc12 [Compound 134],0.1 to 1,0.1 to 1,1 to 10,0.1 to 1,< 0.1,–,–,–,–,–,–
C[C@@H](O)C1CCN(c2nc(OC[C@@]34CCCN3C[C@H](F)C4)nc3c(F)c(-c4ccc(F)c5sc(N)c(C#N)c45)c(C(F)(F)F)cc23)CC1 [Compound 49],< 0.1,0.1 to 1,0.1 to 1,0.1 to 1,< 0.1,–,–,–,–,–,–
C[C@H]1COCCN1c1nc(OC[C@@]23CCCN2C[C@H](F)C3)nc2c(F)c(-c3ccc(F)c4sc(N)c(C#N)c34)c(C(F)(F)F)cc12 [Compound 135],< 0.1,0.1 to 1,0.1 to 1,0.1 to 1,< 0.1,–,–,–,–,–,–
"CN(c1nc(OC[C@@]23CCCN2C[C@H](F)C3)nc2c(F)c(-c3ccc(F)c4sc(N)c(C#N)c34)c(C(F)(F)F)cc12)[C@@H]1CCN(C(=O)CC#N)C1 (atropisomer, axis not shown) [Compound 103]",0.1 to 1,0.1 to 1,0.1 to 1,0.1 to 1,< 0.1,–,–,–,–,–,–
CN(c1nc(OC[C@@]23CCCN2C[C@H](F)C3)nc2c(F)c(-c3ccc(F)c4sc(N)c(C#N)c34)c(C(F)(F)F)cc12)C(CO)CO [Compound 80],< 0.1,0.1 to 1,0.1 to 1,0.1 to 1,< 0.1,–,–,–,–,–,–
CN(c1nc(OC[C@@]23CCCN2C[C@H](F)C3)nc2c(F)c(-c3ccc(F)c4sc(N)c(C#N)c34)c(C(F)(F)F)cc12)C1CC(F)C1 (stereo partly shown) [Compound 161],0.1 to 1,0.1 to 1,0.1 to 1,0.1 to 1,–,< 0.1,–,–,–,–,–

# Further lines, with some results ahead:
"IC50 [1, 5] [µM]","IC50 [2, 6] [µM]","IC50 [3, 7] [µM]","IC50 [4, 8] [µM]",IC50 (GP2d cells (KRAS G12D); GP2d) [µM],IC50 (SW620 cells (KRAS G12V); [9]) [µM],IC50 ([1]; KRAS G12D-GppNHp/RAF1 RBD HTRF) [µM],IC50 ([2]; KRAS G12R-GppNHp/RAF1 RBD HTRF) [µM],IC50 ([3]; KRAS G12V-GppNHp/RAF1 RBD HTRF) [µM],IC50 ([4]; KRAS WT-GppNHp/RAF1 RBD HTRF) [µM],SMILES,also measured
–,–,–,–,0.1 to 1,0.1 to 1,1 to 10,> 10,> 10,1 to 10,"CCC(=O)N1CC[C@@H](N(C)c2nc(OC[C@]34CCCN3C[C@H](F)C4)nc3c(F)c(-c4ccc(F)c5sc(N)c(C#N)c45)c(C(F)(F)F)cc23)[C@H]1C (atropisomer, axis not shown) [Compound 336]",–
–,–,–,–,< 0.1,< 0.1,0.1 to 1,0.1 to 1,0.1 to 1,0.1 to 1,"CCN(c1nc(OC[C@@]23CCCN2C[C@H](F)C3)nc2c(F)c(-c3ccc(F)c4sc(N)c(C#N)c34)c(C(F)(F)F)cc12)[C@@H]1C[C@@H](C)N(C(=O)OC)C1 (atropisomer, axis not shown) [Compound 526]",–
–,–,–,–,< 0.1,< 0.1,0.1 to 1,0.1 to 1,1 to 10,0.1 to 1,C[C@H]1CC[C@@H](O)CN1c1nc(OC[C@@]23CCCN2C[C@H](F)C3)nc2c(F)c(-c3ccc(F)c4sc(N)c(C#N)c34)c(C(F)(F)F)cc12 [Compound 317],–
–,–,–,–,–,< 0.1,0.1 to 1,0.1 to 1,0.1 to 1,0.1 to 1,CCN(c1nc(OC[C@@]23CCCN2C[C@H](F)C3)nc2c(F)c(-c3ccc(F)c4sc(N)c(C#N)c34)c(C(F)(F)F)cc12)[C@@H]1CCN(C(C)=O)[C@@H]1C [Compound 407],–
